We go through three compounds from ChEMBL document CHEMBL5230119, “Development of differentiation modulators and targeted agents for treating neuroblastoma” (Eur J Med Chem, 2020).

The nature of assay [1]: Synergistic antiproliferative activity against MYCN amplified human Neuroblastoma cell in presence of OTX-015. The assay is classed as functional, cell-based.
The nature of assay [2]: Synergistic antiproliferative activity against MYCN amplified human Neuroblastoma cell in presence of JQ1.
The subject of assay [3] is IMR-32. The assay can be described thus: Antiproliferative activity against human IMR-32 cells assessed as cell growth inhibition. The assay is classed as functional, cell-based.

As to `Cc1sc2c(c1C)C(c1ccc(Cl)cc1)=N[C@@H](CC(=O)NC(C)(C)C)c1nnc(C)n1-2`, the IC50 in assay [1] was determined as 1480 nM.
Regarding `Cc1sc2c(c1C)C(c1ccc(Cl)cc1)=N[C@@H](CC(=O)Nc1ccc(O)cc1)c1nnc(C)n1-2` [BIRABRESIB], the half-inhibitory concentration (IC50) in assay [2] was found to be 839 nM.
On to `O=C(c1ccc(F)c(F)c1Nc1ccc(I)cc1F)N1CC(O)([C@@H]2CCCCN2)C1` [COBIMETINIB], for which the IC50 in assay [3] is 70 nM.

In general, IC50 refers to the concentration at which inhibition is half-maximal.
